# pEC50, pKi: −log10 of the molar value. Activity calls are given as the source filed them. The rule behind the calls is not given here.
# What was measured:
# Rhodesain = Rhodesain (Trypanosoma brucei rhodesiense, UniProt Q95PM0); test: Inhibition of Trypanosoma brucei rhodesiense rhodesain using Z-Phe-Arg-AMC as substrate by fluorometric assay
# Procathepsin L [1] = molecular target: T1, Procathepsin L (Homo sapiens, UniProt P07711); test: Inhibition of human cathepsin-L at 20 uM using Z-Phe-Arg-AMC as substrate by fluorometric assay relative to control
# Target sequence in this assay (P07711 114-333 limits assumed): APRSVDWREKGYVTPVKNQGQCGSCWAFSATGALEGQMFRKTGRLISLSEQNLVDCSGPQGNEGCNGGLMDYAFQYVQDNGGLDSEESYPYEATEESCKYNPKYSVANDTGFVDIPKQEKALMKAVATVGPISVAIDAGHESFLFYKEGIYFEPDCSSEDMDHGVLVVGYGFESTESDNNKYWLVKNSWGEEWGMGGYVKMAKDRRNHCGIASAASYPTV
# Leishmania major [2] = test: Antileishmanial activity against Leishmania major promastigotes; type: functional, organism-based
# [3] = molecular target: T2, Falcipain 2 (Plasmodium falciparum) (UniProt Q9N6S8); test: Inhibition of Plasmodium falciparum falcipain 2 at 20 uM using Z-Phe-Arg-AMC as substrate by fluorometric assay relative to control
# T2 sequence (whole entry): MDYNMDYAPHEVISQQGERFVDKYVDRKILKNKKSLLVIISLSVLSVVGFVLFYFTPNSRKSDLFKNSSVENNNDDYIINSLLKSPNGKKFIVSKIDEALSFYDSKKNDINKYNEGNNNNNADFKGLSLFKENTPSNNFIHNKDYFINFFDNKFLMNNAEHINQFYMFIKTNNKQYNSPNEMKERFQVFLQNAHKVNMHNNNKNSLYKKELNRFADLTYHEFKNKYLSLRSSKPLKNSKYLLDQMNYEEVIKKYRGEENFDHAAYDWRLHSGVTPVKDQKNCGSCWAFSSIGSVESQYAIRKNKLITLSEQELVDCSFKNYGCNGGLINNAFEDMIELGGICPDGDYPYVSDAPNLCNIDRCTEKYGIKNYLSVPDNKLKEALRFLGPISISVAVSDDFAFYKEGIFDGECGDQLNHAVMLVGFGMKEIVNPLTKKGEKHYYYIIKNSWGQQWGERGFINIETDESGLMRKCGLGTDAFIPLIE
# Cruzipain = Cruzipain (Trypanosoma cruzi, UniProt P25779); test: Inhibition of Trypanosoma cruzi cruzain using Z-Phe-Arg-AMC as substrate by fluorometric assay
# Chain of Cruzipain (P25779 whole entry): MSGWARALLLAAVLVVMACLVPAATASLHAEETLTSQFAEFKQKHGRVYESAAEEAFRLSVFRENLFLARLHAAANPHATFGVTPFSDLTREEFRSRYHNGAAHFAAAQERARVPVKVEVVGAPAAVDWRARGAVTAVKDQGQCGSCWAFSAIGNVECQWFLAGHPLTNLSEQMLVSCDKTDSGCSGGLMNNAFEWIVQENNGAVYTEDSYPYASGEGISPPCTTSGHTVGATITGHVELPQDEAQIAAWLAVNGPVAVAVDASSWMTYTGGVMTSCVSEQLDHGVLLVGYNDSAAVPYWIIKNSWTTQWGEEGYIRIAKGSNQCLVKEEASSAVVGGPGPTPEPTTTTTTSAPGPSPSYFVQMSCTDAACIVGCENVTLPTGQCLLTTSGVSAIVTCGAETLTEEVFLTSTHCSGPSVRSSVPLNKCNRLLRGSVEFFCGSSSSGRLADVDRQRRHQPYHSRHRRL
# [4] = Inhibition of Leishmania mexicana cathepsin L-like protease CPB2.8 using Z-Phe-Arg-AMC as substrate by fluorometric assay
# Cathepsin B = Cathepsin B (Homo sapiens, UniProt P07858); test: Inhibition of human cathepsin-B at 20 uM using Z-Phe-Arg-AMC as substrate by fluorometric assay relative to control
# Leishmania mexicana [5] = test: Inhibition of Leishmania mexicana cathepsin L-like protease CPB2.8 at 20 uM using Z-Phe-Arg-AMC as substrate by fluorometric assay relative to control
# [6] = molecular target: Rhodesain (Trypanosoma brucei rhodesiense) (UniProt Q95PM0); test: Inhibition of Trypanosoma brucei rhodesiense rhodesain at 20 uM using Z-Phe-Arg-AMC as substrate by fluorometric assay relative to control
# Chain of Rhodesain (Trypanosoma brucei rhodesiense) (Q95PM0 1-450): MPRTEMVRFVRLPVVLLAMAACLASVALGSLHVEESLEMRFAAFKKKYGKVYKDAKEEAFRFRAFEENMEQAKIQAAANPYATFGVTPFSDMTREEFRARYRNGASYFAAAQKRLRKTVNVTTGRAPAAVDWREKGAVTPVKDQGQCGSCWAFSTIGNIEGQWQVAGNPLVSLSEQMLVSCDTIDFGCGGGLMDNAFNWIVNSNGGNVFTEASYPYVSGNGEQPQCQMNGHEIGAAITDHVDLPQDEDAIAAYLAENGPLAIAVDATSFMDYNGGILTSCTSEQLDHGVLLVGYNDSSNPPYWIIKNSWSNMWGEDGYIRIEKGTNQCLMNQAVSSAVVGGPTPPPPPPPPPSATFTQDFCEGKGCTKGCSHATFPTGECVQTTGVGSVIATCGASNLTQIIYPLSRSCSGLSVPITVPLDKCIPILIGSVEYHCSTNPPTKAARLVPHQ
# [7] = molecular target: Cruzipain (Trypanosoma cruzi) (UniProt P25779); test: Inhibition of Trypanosoma cruzi cruzain at 20 uM using Z-Phe-Arg-AMC as substrate by fluorometric assay relative to control
# Chain of Cruzipain (Trypanosoma cruzi) (P25779 123-467 limits assumed): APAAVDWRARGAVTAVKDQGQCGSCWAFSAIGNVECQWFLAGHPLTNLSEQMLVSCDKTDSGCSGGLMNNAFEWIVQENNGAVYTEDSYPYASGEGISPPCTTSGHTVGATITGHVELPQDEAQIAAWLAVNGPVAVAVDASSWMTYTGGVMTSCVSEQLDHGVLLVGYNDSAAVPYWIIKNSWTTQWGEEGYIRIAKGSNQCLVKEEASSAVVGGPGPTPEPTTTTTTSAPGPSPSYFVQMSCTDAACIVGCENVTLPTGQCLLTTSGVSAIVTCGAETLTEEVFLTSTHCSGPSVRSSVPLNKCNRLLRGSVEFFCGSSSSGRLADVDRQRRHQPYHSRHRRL
# Procathepsin L [8] = molecular target: T1, Procathepsin L; test: Inhibition of human cathepsin-L using Z-Phe-Arg-AMC as substrate by fluorometric assay
# Target sequence in this assay (P07711 whole entry): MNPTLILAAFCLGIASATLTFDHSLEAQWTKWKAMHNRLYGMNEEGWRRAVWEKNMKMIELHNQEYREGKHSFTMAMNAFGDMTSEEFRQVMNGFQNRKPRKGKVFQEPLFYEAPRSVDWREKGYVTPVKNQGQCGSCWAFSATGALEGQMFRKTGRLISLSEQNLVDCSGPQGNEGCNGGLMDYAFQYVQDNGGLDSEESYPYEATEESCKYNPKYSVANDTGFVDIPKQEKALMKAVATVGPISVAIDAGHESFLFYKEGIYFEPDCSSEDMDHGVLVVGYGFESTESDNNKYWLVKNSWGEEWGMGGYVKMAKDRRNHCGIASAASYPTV
# Falcipain 2 = molecular target: T3, Falcipain 2 (Plasmodium falciparum, UniProt Q9N6S8); test: Inhibition of Plasmodium falciparum falcipain 2 using Z-Phe-Arg-AMC as substrate by fluorometric assay
# T3 sequence (Q9N6S8 whole entry): T2 sequence (whole entry)
# Leishmania major [9] = test: Antileishmanial activity against luciferase-fused Leishmania major amastigotes infected in BMDM after 24 hrs by luminescence assay; type: functional, organism-based
# J774 = test: Cytotoxicity against mouse J774 cells; type: cell-based
# [10] = molecular target: T2, Falcipain 2 (Plasmodium falciparum); test: Inhibition of Plasmodium falciparum falcipain 2 assessed as second order inactivation rate constant using Z-Phe-Arg-AMC as substrate by fluorometric assay
# Leishmania major [11] = test: Antileishmanial activity against Leishmania major promastigotes at 20 uM; type: functional, organism-based
# [12] = molecular target: Rhodesain (Trypanosoma brucei rhodesiense) (UniProt Q95PM0); test: Inhibition of Trypanosoma brucei rhodesiense rhodesain assessed as second order inactivation rate constant using Z-Phe-Arg-AMC as substrate by fluorometric assay
# Leishmania mexicana [13] = test: Inhibition of Leishmania mexicana cathepsin L-like protease CPB2.8 assessed as second order inactivation rate constant using Z-Phe-Arg-AMC as substrate by fluorometric assay
# Chain of Rhodesain (Q95PM0 whole entry): as the sequence (Q95PM0 1-450) above
inhibition (Procathepsin L [1]),pEC50 (Leishmania major [2]),inhibition [3],pKi (Cruzipain),pKi [4],inhibition (Cathepsin B),inhibition (Leishmania mexicana [5]) [%],inhibition [6] [%],inhibition [7] [%],pKi (Procathepsin L [8]),pKi (Falcipain 2),pEC50 (Leishmania major [9]),SMILES,pKi (Rhodesain),Activity (J774) [µM],K [10] [M⁻¹ s⁻¹],Activity (Leishmania major [11]),K [12] [M⁻¹ s⁻¹],K (Leishmania mexicana [13]) [M⁻¹ s⁻¹]
,4.40,,6.05,5.77,inactive,,,,5.22,4.36,5.66,CC(C)C[C@H](NC(=O)OC(C)(C)C)C(=O)N1CCC[C@@H]1C(=O)N1[C@H](C(=O)OCc2ccccc2)[C@H]1C(=O)OCc1ccccc1,,,,,,
< 50%,,< 50%,,5.87,inactive,> 50,< 50,< 50,,,,CC(C)C[C@H](NC(=O)OC(C)(C)C)C(=O)N1CCC[C@@H]1C(=O)N1C(C(=O)OCCCc2ccccc2)C1C(=O)OCc1ccccc1 (mixture of isomers),,,,,,
,4.46,,,,,,,,,,5.66,CC(C)[C@H](NC(=O)OC(C)(C)C)C(=O)N1CCC[C@@H]1C(=O)N1[C@@H](C(=O)OCc2ccccc2)[C@@H]1C(=O)OCc1ccccc1,,> 250,,,,
< 50%,,< 50%,,6.10,inactive,> 50,< 50,< 50,,,,CC(C)C[C@H](NC(=O)OC(C)(C)C)C(=O)N1CCC[C@@H]1C(=O)N1C(C(=O)OCc2ccccc2)C1C(=O)OCc1ccc2ccccc2c1 (mixture of isomers),,,,,,
inactive,,inactive,,,inactive,,,,,,,CC(C)C[C@H](NC(=O)OC(C)(C)C)C(=O)N1CCC[C@H]1C(=O)N1[C@H](C(=O)OCc2ccccc2)[C@H]1C(=O)OCc1ccccc1,,,,inactive,,
inactive,,inactive,,,inactive,,,,,,,CC(C)C[C@@H](NC(=O)OC(C)(C)C)C(=O)N1CCC[C@@H]1C(=O)N1[C@H](C(=O)OCc2ccccc2)[C@H]1C(=O)OCc1ccccc1,,,,inactive,,
,5.01,,,,,,,,,,5.70,CC[C@H](C)[C@H](NC(=O)OC(C)(C)C)C(=O)N1CCC[C@@H]1C(=O)N1[C@@H](C(=O)OCc2ccccc2)[C@@H]1C(=O)OCc1ccccc1,,> 250,,,,
< 50%,,< 50%,5.26,5.72,inactive,> 50,< 50,> 50,,,,CC(C)C[C@H](NC(=O)OC(C)(C)C)C(=O)N1CCC[C@@H]1C(=O)N1C(C(=O)OCCc2ccccc2)C1C(=O)OCc1ccccc1 (mixture of isomers),,,,,,
< 50%,,< 50%,5.11,5.80,inactive,> 50,< 50,> 50,,,,CC(C)C[C@H](NC(=O)OC(C)(C)C)C(=O)N1CCC[C@@H]1C(=O)N1C(C(=O)OCCc2ccccc2)C1C(=O)OCCc1ccccc1 (mixture of isomers),,,,,,
,4.45,,6.10,5.68,inactive,,,,5.40,4.55,5.57,CC(C)C[C@@H](NC(=O)OC(C)(C)C)C(=O)N1CCC[C@H]1C(=O)N1[C@H](C(=O)OCc2ccccc2)[C@H]1C(=O)OCc1ccccc1,,,,,,

# Further lines, the compound ahead of its results:
SMILES,inhibition (Procathepsin L [1]),pEC50 (Leishmania major [2]),inhibition [3],pKi (Cruzipain),pKi [4],inhibition (Cathepsin B),inhibition (Leishmania mexicana [5]) [%],inhibition [6] [%],inhibition [7] [%],pKi (Procathepsin L [8]),pKi (Falcipain 2),pEC50 (Leishmania major [9]),pKi (Rhodesain),Activity (J774) [µM],K [10] [M⁻¹ s⁻¹],Activity (Leishmania major [11]),K [12] [M⁻¹ s⁻¹],K (Leishmania mexicana [13]) [M⁻¹ s⁻¹]
CC(C)C[C@@H](NC(=O)OC(C)(C)C)C(=O)N1CCC[C@H]1C(=O)N1[C@@H](C(=O)OCc2ccccc2)[C@@H]1C(=O)OCc1ccccc1,inactive,4.02,inactive,4.51,5.47,inactive,,,,,,,4.82,,,,,
CC(C)C[C@H](NC(=O)OC(C)(C)C)C(=O)N1CCC[C@@H]1C(=O)N1C(C(=O)OCC2CCCCC2)C1C(=O)OCC1CCCCC1 (mixture of isomers),< 50%,,< 50%,,6.11,inactive,> 50,< 50,< 50,,,,,,,,,
CC(C)C[C@H](NC(=O)OC(C)(C)C)C(=O)N1CCC[C@@H]1C(=O)N1C(C(=O)OCc2ccccc2)C1C(=O)OCC1CCCCC1 (mixture of isomers),< 50%,,< 50%,5.12,5.74,inactive,> 50,< 50,> 50,,,,,,,,,
CC(C)C[C@H](NC(=O)OC(C)(C)C)C(=O)N1CCC[C@@H]1C(=O)N1C(C(=O)O)C1C(=O)OCCCc1ccccc1 (mixture of isomers),< 50%,,> 50%,,,inactive,< 50,< 50,< 50,,4.54,,,,55.8,,,
CC(C)C[C@H](NC(=O)OC(C)(C)C)C(=O)N1CCC[C@@H]1C(=O)N1C(C(=O)O)C1C(=O)OCCc1ccccc1 (mixture of isomers),< 50%,,> 50%,,6.36,inactive,> 50,> 50,< 50,,5.90,,6.80,,185,,2970,3180
CC(C)C[C@H](NC(=O)OC(C)(C)C)C(=O)N1CCC[C@@H]1C(=O)N1C(C(=O)OCc2ccccc2)C1C(=O)OCc1ccccc1 (mixture of isomers),> 50%,,> 50%,5.74,5.55,inactive,> 50,> 50,> 50,4.92,,,5.82,,,,,
CCOC(=O)C1C(C(=O)O)N1C(=O)[C@H]1CCCN1C(=O)[C@H](CC(C)C)NC(=O)OC(C)(C)C (mixture of isomers),< 50%,,< 50%,,,inactive,< 50,< 50,< 50,,,,,,,,,
CC(C)C[C@H](NC(=O)OC(C)(C)C)C(=O)N1CCC[C@@H]1C(=O)N1C(C(=O)OCCCc2ccccc2)C1C(=O)OCCCc1ccccc1 (mixture of isomers),< 50%,,< 50%,,6.05,inactive,> 50,< 50,< 50,,,,,,,,,
CC(C)C[C@H](NC(=O)OC(C)(C)C)C(=O)N1CCC[C@@H]1C(=O)N1C(C(=O)O)C1C(=O)OC(C)(C)C (mixture of isomers),< 50%,,< 50%,,,inactive,< 50,< 50,< 50,,,,,,,,,
CCOC(=O)C1C(C(=O)OCc2ccccc2)N1C(=O)[C@H]1CCCN1C(=O)[C@H](CC(C)C)NC(=O)OC(C)(C)C (mixture of isomers),< 50%,,< 50%,,,inactive,< 50,< 50,< 50,,,,,,,,,
CC(C)C[C@H](NC(=O)OC(C)(C)C)C(=O)N1CCC[C@@H]1C(=O)N1C(C(=O)OCc2ccccc2)C1C(=O)OC(C)(C)C (mixture of isomers),< 50%,,< 50%,,,inactive,< 50,< 50,< 50,,,,,,,,,

# From ChEMBL document CHEMBL4270566, “New aziridine-based inhibitors of cathepsin L-like cysteine proteases with selectivity for the Leishmania cysteine protease LmCPB2.8” (Eur J Med Chem, 2018)
